“Also recorded” adds a separate entry of the source.
What was measured:
[1] = target: T1, OCT2 (Homo sapiens, UniProt O15244); assay: Uptake of amanitins into HEK293-OCT2 cells; assay type: in vitro ADME; conditions: 50 μM amanitin, 5 min, 37 °C, HBSS, 20 min preincubation, with and without cimetidine, LC-HRMS, n = 3
T1 construct: expressed in transfected cells; host or cells: HEK293
T1 sequence (O15244 1-555): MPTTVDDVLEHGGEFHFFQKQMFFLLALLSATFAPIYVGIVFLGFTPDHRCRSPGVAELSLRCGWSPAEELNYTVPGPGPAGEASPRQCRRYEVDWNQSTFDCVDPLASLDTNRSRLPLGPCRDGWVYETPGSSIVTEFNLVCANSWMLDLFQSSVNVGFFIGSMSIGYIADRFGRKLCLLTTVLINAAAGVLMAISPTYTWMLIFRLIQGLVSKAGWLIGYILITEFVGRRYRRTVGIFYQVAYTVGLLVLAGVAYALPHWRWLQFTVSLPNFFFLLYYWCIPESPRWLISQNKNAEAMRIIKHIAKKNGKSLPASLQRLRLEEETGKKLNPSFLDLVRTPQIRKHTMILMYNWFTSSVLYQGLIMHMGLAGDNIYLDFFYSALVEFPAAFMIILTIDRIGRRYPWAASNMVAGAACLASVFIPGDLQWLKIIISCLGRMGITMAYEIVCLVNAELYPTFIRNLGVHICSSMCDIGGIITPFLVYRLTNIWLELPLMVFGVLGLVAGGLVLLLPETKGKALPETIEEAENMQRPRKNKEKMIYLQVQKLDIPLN
Protocol: HEK293 cells overexpressing OCT2, MATE2-K, OAT1, OAT3, OATP1B1, and OATP1B3 transporters and HEK293-control cells were maintained in a humidified atmosphere of 5% CO2 at 37 °C in DMEM supplemented with 10% FBS and 5 mM non-essential amino acids. In the case of HEK293-OATP1B1, -OATP1B3, and MATE2-K cells, 2 mM sodium butyrate was added to the culture medium to enhance transport activity. Cells were seeded at 2 × 10^5 cells/well in poly-D-lysine-coated 24-well plates. After 24 h, the growth medium was discarded, and attached cells were washed with HBSS and preincubated for 20 min in HBSS at 37 °C. Stock solutions of α- and β-amanitin and representative inhibitors of transporters were diluted in HBSS to make the final concentration: cimetidine 1 mM (for OCT2), cimetidine 100 μM (for MATE2-K), probenecid 100 μM (for OAT1 and OAT3), and rifampin 100 μM (for OATP1B1 and OATP1B3). Uptake of 50 μM α- and β-amanitin was measured in the absence and presence of representative inhibitors for 5 min at 37 °C. Plates were placed immediately on ice, and cells were then washed twice with 1 mL of ice-cold HBSS. Residual HBSS was removed thoroughly from the plates. Subsequently, 150 μL of 80% methanol containing IS was added to each sample well, and the cell plates were shaken gently for 20 min at 4 °C. The remaining steps were the same as described for plasma sample preparation.

[2] = tested on: mice; assay: Death or toxicity observed during the toxicokinetic study; assay type: in vivo; conditions: male ICR mice
Protocol: β-amanitin was dissolved in water and administered by iv bolus injection into the tail vein of mice at doses of 0.2 (n = 8), 0.4 (n = 6), and 0.8 (n = 7) mg/kg. Blood samples (approximately 15 μL) were collected from the retro-orbital plexus under light anesthesia with isoflurane at 0.033, 0.083, 0.25, 0.5, 0.75, 1, 1.5, 2, 3, 4, 6, and 8 h after drug administration.
β-amanitin was dissolved in water and administered to mice by gavage at doses of 2 (n = 7), 5 (n = 9), and 10 (n = 7) mg/kg. Blood samples (approximately 15 μL) were collected from the retro-orbital plexus under light anesthesia with isoflurane at 0.033, 0.083, 0.166, 0.25, 0.5, 0.75, 1, 1.5, 2, 4, 6, and 8 h after drug administration. Plasma samples (5 μL each) were harvested by centrifugation at 13,000× g for 3 min at 4 °C and stored at −80 °C until analysis.

[3] = mice, oral administration at doses of 2, 5, or 10 mg/kg; cited from earlier work
Protocol: Amanita phalloides poisoning can cause acute hepatitis, leading to the rapid development of liver insufficiency and ultimately coma and death. Nephrotoxicity is reported less frequently. Yilmaz et al. reported that an oral intake of approximately 50 g of fresh Amanita phalloides, representing a dose of 0.32 mg/kg of amatoxins, can be lethal. A few reports are available that describe the toxicokinetics of α- and β-amanitin after the oral administration of toadstool extract to beagle dogs and rats. In addition, the toxicokinetics of α-amanitin were investi ...

Compound	Uptake into HEK293-OCT2 cells compared with HEK293 control cells (transport substrate) [1]	Death or serious toxicity after intravenous bolus administration ([2]; iv bolus via tail vein 0.2, 0.4 and 0.8 mg/kg)	Death or serious toxicity after oral administration ([2]; oral gavage 2, 5 and 10 mg/kg)	Absolute bioavailability [3]
CC[C@H](C)[C@@H]1NC(=O)CNC(=O)[C@@H]2Cc3c([nH]c4cc(O)ccc34)[S@+]([O-])C[C@H](NC(=O)CNC1=O)C(=O)N[C@@H](CC(=O)O)C(=O)N1C[C@H](O)C[C@H]1C(=O)N[C@@H]([C@@H](C)[C@@H](O)CO)C(=O)N2 [β-amanitin]	not involved in the active transport	did not cause death or serious toxicity; also recorded: did not cause toxicity	did not cause death or serious toxicity; also recorded: did not cause toxicity	–
α-amanitin [reference compound]	not involved in the active transport	–	–	3.5–4.8%

From publication PMC9030691, “Toxicokinetics of β-Amanitin in Mice and In Vitro Drug–Drug Interaction Potential” (Pharmaceutics, 2022)
